Tests used:
Assay type in all cases: functional
Settings in all cases: read-out: DIZ
[1] = tested on: Burkholderia thailandensis; test: Antibacterial activity against Burkholderia thailandensis at 0.5 mM by Kirby Bauer disk diffusion method
[2] = tested on: Pseudomonas aeruginosa; test: Antibacterial activity against Pseudomonas aeruginosa at 0.5 mM by Kirby Bauer disk diffusion method
[3] = tested on: Bacillus cereus; test: Antibacterial activity against Bacillus cereus at 0.5 mM by Kirby Bauer disk diffusion method
[4] = tested on: Escherichia coli; test: Antibacterial activity against Escherichia coli at 0.5 mM by Kirby Bauer disk diffusion method
[5] = tested on: Mycolicibacterium smegmatis; test: Antibacterial activity against Mycobacterium smegmatis at 0.5 mM by Kirby Bauer disk diffusion method
[6] = tested on: Klebsiella pneumoniae; test: Antibacterial activity against Klebsiella pneumoniae at 0.5 mM by Kirby Bauer disk diffusion method
[7] = tested on: Corynebacterium xerosis; test: Antibacterial activity against Corynebacterium xerosis at 0.5 mM by Kirby Bauer disk diffusion method
[8] = tested on: Corynebacterium pseudodiphtheriticum; test: Antibacterial activity against Corynebacterium pseudodiphtheriticum at 0.5 mM by Kirby Bauer disk diffusion method
[9] = tested on: Micrococcus luteus; test: Antibacterial activity against Micrococcus luteus at 0.5 mM by Kirby Bauer disk diffusion method

Compound	zone of inhibition at 500 µM [1] [mm]	zone of inhibition at 500 µM [2] [mm]	zone of inhibition at 500 µM [3] [mm]	zone of inhibition at 500 µM [4] [mm]	zone of inhibition at 500 µM [5] [mm]	zone of inhibition at 500 µM [6] [mm]	zone of inhibition at 500 µM [7] [mm]	zone of inhibition at 500 µM [8] [mm]	zone of inhibition at 500 µM [9] [mm]
O=C(O)c1cnc(NCCc2ccc(Cl)c(Cl)c2)nc1O	11	0	13	0	11	8	0	0	0
CCOC(=O)c1cnc(NCc2ccc(F)cc2)nc1O	8	0	19	0	0	0	0	0	0
O=C(O)c1cnc(NCC2CCCO2)nc1O (stereo not drawn)	7	0	0	0	0	0	0	0	0
CCOC(=O)c1cnc(Nc2ccc(N3CCOCC3)cc2)nc1O	9	11	6	0	14	8	0	0	0
CCOC(=O)c1cnc(Nc2ccc3[nH]ncc3c2)nc1O	8	10	10	0	10	0	0	0	0
CCOC(=O)c1cnc(NCCc2ccccc2Cl)nc1O	12	0	9	0	15	0	0	0	0
CCOC(=O)c1cnc(NCCc2ccc(Cl)cc2Cl)nc1O	11	0	0	0	0	0	0	0	0
O=C(O)c1cnc(Nc2ccc3[nH]ncc3c2)nc1O	10	0	7	0	14	0	0	0	0
CCOC(=O)c1cnc(NCc2cc(Cl)ccc2Cl)nc1O	9	0	13	0	0	0	0	0	14
CCOC(=O)c1cnc(Nc2ccc(-c3ccncc3)cc2)nc1O	0	0	0	0	16	0	0	0	0
O=C(O)c1cnc(Nc2ccc(N3CCCCC3)cc2)nc1O	11	0	12	11	0	10	0	0	0
CCOC(=O)c1cnc(NCc2ccc(Cl)nc2)nc1O	9	0	10	–	–	–	–	–	–
O=C(O)c1cnc(NCc2ccc(F)cc2)nc1O	12	0	12	0	0	0	0	0	0
CCOC(=O)c1cnc(Nc2ccc(I)cc2)nc1O	0	0	13	–	–	–	–	–	–
CCOC(=O)c1cnc(NCc2cccc(Cl)c2)nc1O	11	0	0	0	14	0	0	0	0
